# In US20220339178A1, “COMPOSITIONS AND METHODS FOR COGNITIVE PROTECTION OF POLLINATORS AGAINST PESTICIDES” (priority 2019, published 2022):
# System: Honey bee foragers (Apis mellifera scutellata)
# Assay: Classical conditioning of PER in honey bees: rutin, kaempferol, p-coumaric acid vs fipronil
# Format: in vivo
# Protocol: Honey bee foragers (Apis mellifera scutellata) were captured from established hives at the Apiary of the Universidad del Rosario (Bogota, Colombia) between 08:00 h and 10:00 h. Bees were ice-anesthetized and harnessed in plastic tubes and maintained under laboratory conditions for the duration of the experiment (five days). Food was provided twice a day in a volumen of 10 μL and varied in composition according to experimental treatments.
# Bees were randomly allocated to one of the following treatments administered twice a day for three consecutive days (all concentrations are final):
# Control: 1M sucrose water (10 μL)
# Rut: 1 μM rutin (Sigma-Aldrich: R5143)-1M sugar water (10 μL)
# Kaemp:131 μM kaempferol (Sigma-Aldrich:K0133)+1M sugar water (10 μL)
# p-Cou A: 200 μM p-coumaric acid (Sigma-Aldrich:C9008) diluted in 1M sugar water (10 μL)
# Mix: 1 μM rutin, 131 μM kaempferol and 200 μM p-Coumaric acid): Bees fed with composition diluted in 1M sugar water (10 μL) fed twice a day for three days
# On the fourth day, bees were randomly assigned to one of two treatments three hours before training:
# Fipronil: 10 μL of 228 nM Fipronil (Astuto Invesa) in 1M sucrose water
# Sucrose solution: 10 μL 1M sucrose water
# Thus, bees belong to one of ten treatments: Control, Kaemp, Rut, p-Cou A, Mix, Fipro, Kaemp+Fipro, Rut+Fipro, p-Cou A+Fipro, Mix+Fipro.
# Bees were trained using classical conditioning of the proboscis extension response (PER). Briefly, bees received a soft current of clean air for 15 seconds to allow bees to accommodate. Then a soft current of 1-hexanol (Sigma-Aldrich: 471402) was injected for 10 seconds. Six seconds after injection of 1-hexanol, one of the antennae was stimulated with sugar water (1.5M), which leads to the reflexive extension of the proboscis, and the bee was allowed to drink for 4 seconds. Thus, the reward and the stimulus overlapped for four seconds. This sequence, recognized as a training trial, was repeated eleven times. Time was determined using a metronome (2 Hz). Memory retention was tested 24 hours after the eleven training trials. […] 12 bees were trained each session. Training was conducted by an experimenter blind to treatment.
# Learning for each individual was quantified as the number of conditioned PER responses across the trials. Thus, for each bee a learning score between zero and ten (0-10) was recorded.
# Multiple comparisons were then run comparing learning score relative to Control bees using a non-parametric one or two-tailed Steel Method depending upon predictions. These comparisons informed us about the predicted impairment produced by the insecticides, the predicted innocuous effect of the flavonoid and the potential level of protection. Error due to multiple comparisons was controlled using the False Discovery Rate method (FDR-two stage sharpened method). In all cases corrected p-values (q-values) are presented.
# Memory retention was quantified as a nominal variable (yes/no). Data were compared across treatments using a Chi-square test, followed by multiple comparisons of all treatments vs. Control. Error due to multiple comparisons was controlled using the FDR as indicated above. In all cases corrected p-values (q values) are presented.
# Latency was quantified as a continuous variable between 0.5 s and 10 s. Data were compared across treatments using an ANOVA following a Log transformation to normalize the distribution (Shapiro-Wilk W Test after log transformation: p>0.05 for all treatments for the null hypothesis that data is from a normal distribution), followed by multiple comparisons between all treatments and the Control group (Dunnett's method). Error due to multiple comparisons was controlled using the FDR method as indicated above. In all cases corrected p-values (q-values) are presented.
smiles,measurement,setting,value
C[C@@H]1O[C@@H](OC[C@H]2O[C@@H](Oc3c(-c4ccc(O)c(O)c4)oc4cc(O)cc(O)c4c3=O)[C@H](O)[C@@H](O)[C@@H]2O)[C@H](O)[C@H](O)[C@H]1O [Rutin],latency of response relative to Control bees,Dunnett's method,not significantly different from Control
same,learning score relative to Control bees,"honey bees, score 0-10, 1 μM rutin, 131 μM kaempferol, 200 μM p-coumaric acid or Mix twice a day for three days, 228 nM fipronil 10 μL three hours before training",not significantly different from Control bees
